This note sets out measurements from ChEMBL document CHEMBL3991601, “The target landscape of clinical kinase drugs” (Science, 2017).

In general, Kd refers to the free concentration of one partner at which half of the binding sites on the other are occupied at equilibrium, for simple one-to-one binding.

Active and inactive are the calls of the source. For most assays here, no stated cut-off is given here; in the data, actives have a measured Kd and inactives only a lower limit. Bounds are passed on as bounds.

Experiment [1] deals with T1, AarF domain-containing protein kinase 1 (Homo sapiens, UniProt Q86TW2).
T1 sequence (Q86TW2 whole entry): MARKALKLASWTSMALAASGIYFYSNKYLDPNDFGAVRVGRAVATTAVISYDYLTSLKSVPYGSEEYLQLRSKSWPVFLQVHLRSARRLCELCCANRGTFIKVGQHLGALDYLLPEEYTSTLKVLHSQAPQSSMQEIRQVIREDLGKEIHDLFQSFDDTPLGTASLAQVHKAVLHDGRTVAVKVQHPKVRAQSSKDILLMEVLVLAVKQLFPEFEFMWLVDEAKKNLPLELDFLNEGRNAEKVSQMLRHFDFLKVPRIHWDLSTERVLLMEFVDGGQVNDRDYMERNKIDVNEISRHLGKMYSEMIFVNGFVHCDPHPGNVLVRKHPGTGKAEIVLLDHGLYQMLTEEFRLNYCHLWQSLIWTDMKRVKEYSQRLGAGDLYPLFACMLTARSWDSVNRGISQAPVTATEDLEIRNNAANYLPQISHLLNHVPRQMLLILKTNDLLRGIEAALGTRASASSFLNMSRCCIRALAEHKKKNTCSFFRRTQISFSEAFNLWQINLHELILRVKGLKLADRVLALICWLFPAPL

Experiment [2] concerns the target T2, Serine/threonine-protein kinase ULK3 (Homo sapiens, UniProt Q6PHR2).
T2 sequence (Q6PHR2 whole entry): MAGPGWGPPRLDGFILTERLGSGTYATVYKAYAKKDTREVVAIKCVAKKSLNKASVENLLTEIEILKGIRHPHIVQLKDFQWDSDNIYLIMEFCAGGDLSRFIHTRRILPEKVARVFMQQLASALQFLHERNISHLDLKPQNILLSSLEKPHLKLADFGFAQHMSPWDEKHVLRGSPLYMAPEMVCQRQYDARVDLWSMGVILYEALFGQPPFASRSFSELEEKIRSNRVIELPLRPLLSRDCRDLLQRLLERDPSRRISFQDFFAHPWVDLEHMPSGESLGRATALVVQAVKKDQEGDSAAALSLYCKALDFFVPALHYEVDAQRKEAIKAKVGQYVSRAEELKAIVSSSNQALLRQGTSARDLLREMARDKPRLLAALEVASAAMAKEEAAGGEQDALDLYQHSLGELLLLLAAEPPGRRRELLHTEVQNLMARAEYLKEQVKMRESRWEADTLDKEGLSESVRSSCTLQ

Experiment [3] addresses T3, Activin receptor type-1 (Homo sapiens, UniProt Q04771).
T3 sequence (Q04771 whole entry): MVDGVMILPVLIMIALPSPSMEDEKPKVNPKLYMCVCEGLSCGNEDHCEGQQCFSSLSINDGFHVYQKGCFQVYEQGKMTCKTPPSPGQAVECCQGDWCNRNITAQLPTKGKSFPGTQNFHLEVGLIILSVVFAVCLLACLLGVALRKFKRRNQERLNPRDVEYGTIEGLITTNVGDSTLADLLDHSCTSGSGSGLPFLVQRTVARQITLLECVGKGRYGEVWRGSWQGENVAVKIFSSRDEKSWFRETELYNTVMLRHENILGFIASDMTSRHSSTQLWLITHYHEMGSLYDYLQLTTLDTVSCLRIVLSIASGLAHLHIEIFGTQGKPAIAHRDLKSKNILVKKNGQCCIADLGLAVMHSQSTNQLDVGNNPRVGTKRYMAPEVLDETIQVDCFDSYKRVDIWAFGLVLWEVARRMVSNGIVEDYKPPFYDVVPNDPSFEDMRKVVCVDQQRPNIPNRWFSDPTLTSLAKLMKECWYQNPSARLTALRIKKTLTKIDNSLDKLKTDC

The target of experiment [4] is T4, Bone morphogenetic protein receptor type-2 (Homo sapiens, UniProt Q13873).
T4 sequence (Q13873 whole entry): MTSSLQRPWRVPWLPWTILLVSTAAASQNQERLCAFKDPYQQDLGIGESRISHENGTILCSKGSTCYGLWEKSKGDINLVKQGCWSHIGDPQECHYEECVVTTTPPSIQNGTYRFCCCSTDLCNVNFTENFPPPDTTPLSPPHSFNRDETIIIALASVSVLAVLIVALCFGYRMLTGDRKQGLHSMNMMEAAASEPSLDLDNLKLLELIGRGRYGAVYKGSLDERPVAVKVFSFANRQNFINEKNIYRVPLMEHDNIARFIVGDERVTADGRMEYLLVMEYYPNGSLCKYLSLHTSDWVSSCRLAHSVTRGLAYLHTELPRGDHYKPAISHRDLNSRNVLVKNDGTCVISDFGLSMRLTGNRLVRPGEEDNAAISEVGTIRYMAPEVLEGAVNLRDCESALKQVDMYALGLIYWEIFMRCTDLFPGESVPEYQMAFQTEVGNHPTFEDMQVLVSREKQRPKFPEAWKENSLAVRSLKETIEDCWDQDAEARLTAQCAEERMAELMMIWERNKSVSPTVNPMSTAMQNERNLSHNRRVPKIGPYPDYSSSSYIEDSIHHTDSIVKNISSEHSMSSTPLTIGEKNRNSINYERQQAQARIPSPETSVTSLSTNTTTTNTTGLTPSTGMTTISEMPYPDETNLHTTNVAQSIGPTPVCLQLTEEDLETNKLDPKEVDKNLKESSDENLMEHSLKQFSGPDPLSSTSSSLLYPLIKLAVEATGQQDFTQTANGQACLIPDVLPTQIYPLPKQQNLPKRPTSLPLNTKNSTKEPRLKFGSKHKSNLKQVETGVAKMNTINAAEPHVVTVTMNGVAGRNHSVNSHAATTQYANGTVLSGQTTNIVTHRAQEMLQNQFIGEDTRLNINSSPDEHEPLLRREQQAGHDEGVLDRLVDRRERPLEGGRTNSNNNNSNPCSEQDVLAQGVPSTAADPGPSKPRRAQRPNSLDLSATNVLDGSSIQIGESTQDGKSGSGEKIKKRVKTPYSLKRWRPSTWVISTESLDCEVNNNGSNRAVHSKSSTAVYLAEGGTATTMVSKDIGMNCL

Experiment [5] deals with Glycogen synthase kinase-3 alpha (Homo sapiens, UniProt P49840).
Experiment [6] concerns the target Ephrin type-A receptor 4 (Homo sapiens, UniProt P54764).
For experiment [7], the target named is Casein kinase II subunit alpha' (Homo sapiens, UniProt P19784).
The target in experiment [8] is Serine/threonine-protein kinase MRCK beta (Homo sapiens, UniProt Q9Y5S2).
The target of experiment [9] is Serine/threonine-protein kinase 16 (Homo sapiens, UniProt O75716).
The target of experiment [10] is Midasin (Homo sapiens, UniProt Q9NU22).

Chain of Serine/threonine-protein kinase 16 (O75716 whole entry): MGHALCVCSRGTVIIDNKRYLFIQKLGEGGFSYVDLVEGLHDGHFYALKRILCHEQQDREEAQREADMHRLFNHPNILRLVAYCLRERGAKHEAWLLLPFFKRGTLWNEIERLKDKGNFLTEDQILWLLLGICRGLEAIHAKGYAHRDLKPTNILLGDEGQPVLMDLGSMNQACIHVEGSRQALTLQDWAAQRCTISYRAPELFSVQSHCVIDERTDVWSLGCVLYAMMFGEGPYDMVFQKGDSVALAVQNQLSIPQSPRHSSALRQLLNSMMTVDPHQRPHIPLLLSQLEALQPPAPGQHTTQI
Chain of Ephrin type-A receptor 4 (P54764 whole entry): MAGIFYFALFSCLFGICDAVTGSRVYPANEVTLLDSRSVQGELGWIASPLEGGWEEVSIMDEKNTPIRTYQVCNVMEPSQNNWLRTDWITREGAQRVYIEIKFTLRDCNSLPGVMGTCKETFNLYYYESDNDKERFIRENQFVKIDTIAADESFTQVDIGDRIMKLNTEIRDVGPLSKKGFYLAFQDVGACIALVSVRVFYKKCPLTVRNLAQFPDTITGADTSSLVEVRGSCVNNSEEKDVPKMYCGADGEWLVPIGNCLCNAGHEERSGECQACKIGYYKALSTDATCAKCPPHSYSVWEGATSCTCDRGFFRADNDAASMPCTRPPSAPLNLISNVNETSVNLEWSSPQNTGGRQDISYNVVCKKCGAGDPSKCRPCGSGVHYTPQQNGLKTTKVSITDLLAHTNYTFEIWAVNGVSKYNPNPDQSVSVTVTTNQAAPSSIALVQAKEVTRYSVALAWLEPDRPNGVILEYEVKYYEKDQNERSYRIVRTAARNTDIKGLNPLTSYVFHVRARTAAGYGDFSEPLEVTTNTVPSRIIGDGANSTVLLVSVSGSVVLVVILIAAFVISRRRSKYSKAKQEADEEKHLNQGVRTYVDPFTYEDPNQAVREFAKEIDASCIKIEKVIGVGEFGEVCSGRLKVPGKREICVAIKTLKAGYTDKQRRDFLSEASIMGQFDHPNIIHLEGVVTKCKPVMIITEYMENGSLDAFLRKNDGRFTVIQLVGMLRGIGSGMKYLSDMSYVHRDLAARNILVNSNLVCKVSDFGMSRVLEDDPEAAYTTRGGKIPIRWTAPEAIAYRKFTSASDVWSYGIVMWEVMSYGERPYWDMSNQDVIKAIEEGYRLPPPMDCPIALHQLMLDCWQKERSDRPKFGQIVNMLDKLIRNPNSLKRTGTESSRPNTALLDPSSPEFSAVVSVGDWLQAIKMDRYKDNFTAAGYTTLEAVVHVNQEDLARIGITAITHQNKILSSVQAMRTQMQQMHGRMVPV
Chain of Casein kinase II subunit alpha' (P19784 whole entry): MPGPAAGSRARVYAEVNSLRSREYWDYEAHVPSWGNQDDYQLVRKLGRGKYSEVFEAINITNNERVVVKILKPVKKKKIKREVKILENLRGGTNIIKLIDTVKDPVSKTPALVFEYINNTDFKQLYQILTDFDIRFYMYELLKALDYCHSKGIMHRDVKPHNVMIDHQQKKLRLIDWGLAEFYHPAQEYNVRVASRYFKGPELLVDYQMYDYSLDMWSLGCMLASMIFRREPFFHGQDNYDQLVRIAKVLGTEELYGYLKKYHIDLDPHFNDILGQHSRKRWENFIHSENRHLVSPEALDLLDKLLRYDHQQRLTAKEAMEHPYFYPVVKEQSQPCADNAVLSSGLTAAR
Chain of Serine/threonine-protein kinase MRCK beta (Q9Y5S2 whole entry): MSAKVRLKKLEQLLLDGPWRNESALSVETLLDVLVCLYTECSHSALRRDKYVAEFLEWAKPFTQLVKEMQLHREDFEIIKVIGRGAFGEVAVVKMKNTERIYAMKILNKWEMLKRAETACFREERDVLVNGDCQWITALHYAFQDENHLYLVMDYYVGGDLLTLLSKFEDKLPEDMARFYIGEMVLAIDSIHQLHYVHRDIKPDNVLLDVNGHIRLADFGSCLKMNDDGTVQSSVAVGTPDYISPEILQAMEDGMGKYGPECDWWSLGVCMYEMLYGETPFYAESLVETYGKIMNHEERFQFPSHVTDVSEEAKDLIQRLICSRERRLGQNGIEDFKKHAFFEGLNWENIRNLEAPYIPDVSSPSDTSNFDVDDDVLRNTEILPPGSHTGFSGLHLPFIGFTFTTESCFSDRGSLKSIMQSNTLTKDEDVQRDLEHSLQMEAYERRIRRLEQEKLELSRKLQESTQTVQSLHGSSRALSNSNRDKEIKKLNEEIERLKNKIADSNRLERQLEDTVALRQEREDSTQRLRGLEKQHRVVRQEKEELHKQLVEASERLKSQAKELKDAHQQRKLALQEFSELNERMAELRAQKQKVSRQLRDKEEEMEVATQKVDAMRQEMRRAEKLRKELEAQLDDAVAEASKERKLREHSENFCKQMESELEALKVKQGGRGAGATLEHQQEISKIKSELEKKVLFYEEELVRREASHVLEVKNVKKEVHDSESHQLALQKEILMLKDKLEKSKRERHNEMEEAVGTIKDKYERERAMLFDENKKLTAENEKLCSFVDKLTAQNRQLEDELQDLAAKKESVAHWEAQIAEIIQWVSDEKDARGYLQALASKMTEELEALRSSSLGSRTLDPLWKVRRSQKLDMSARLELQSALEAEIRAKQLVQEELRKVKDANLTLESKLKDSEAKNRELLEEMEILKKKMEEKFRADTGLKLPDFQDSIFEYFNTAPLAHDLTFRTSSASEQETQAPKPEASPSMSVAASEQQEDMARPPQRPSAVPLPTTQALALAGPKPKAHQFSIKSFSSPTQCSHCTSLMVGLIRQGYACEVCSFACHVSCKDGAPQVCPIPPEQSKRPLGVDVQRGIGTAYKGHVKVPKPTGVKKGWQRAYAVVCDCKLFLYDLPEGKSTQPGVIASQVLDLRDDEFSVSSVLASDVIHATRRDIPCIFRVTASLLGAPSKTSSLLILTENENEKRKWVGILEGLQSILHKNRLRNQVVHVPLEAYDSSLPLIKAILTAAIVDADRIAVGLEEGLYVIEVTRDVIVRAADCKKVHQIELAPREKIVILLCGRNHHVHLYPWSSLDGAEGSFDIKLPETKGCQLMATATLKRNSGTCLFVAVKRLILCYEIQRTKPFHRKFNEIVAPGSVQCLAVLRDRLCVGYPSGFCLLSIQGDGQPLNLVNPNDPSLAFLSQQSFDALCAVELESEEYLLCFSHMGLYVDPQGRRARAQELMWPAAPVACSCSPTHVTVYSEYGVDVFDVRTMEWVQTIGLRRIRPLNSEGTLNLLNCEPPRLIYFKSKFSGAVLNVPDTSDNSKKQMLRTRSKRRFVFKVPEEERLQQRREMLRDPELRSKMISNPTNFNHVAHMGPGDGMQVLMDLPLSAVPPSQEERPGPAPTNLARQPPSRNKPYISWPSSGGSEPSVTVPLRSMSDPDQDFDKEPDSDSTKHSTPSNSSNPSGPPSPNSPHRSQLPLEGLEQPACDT
Chain of Glycogen synthase kinase-3 alpha (P49840 whole entry): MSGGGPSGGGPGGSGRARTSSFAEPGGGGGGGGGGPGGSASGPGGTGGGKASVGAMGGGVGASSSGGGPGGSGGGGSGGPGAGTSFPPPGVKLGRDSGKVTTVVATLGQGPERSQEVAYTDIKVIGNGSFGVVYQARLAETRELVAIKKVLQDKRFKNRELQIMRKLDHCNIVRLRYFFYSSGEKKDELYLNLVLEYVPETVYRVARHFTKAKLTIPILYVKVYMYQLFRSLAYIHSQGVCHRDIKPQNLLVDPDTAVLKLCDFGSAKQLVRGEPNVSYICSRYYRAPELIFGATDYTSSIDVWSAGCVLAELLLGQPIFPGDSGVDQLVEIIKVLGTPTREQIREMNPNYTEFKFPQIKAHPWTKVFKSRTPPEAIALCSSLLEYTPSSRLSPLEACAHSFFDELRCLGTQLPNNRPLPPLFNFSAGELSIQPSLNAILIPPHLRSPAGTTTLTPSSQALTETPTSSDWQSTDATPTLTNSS

For the compound `Cn1cc(-c2cnn3c(N)c(Br)c([C@@H]4CCCNC4)nc23)cn1` [SCH-900776], the Kd in [1], in experiment [2], in experiment [3], in experiment [4], in experiment [5] and in experiment [6] was > 30 µM (inactive) throughout. Moreover, the dissociation constant Kd in [7] was 0.279 µM (active); in [8] it was > 30 µM (inactive); in experiment [9] it was > 30 µM (inactive); in experiment [10], > 30 µM (inactive).

Regarding `CO[C@H]1C[C@@H]2CC[C@@H](C)[C@@](O)(O2)C(=O)C(=O)N2CCCC[C@H]2C(=O)O[C@H]([C@H](C)C[C@@H]2CC[C@@H](O)[C@H](OC)C2)CC(=O)[C@H](C)/C=C(\C)[C@@H](O)[C@@H](OC)C(=O)[C@H](C)C[C@H](C)/C=C/C=C/C=C/1C` [SIROLIMUS], the Kd in experiment [1], in experiment [2], in [3], in experiment [4], in experiment [5] and in experiment [6] was > 30 µM (inactive) throughout. In addition, the Kd in [7], in experiment [8], in experiment [9] and in [10] was > 30 µM (inactive) each time.

In the case of `CCS(=O)(=O)c1cccc(-c2cc(C(=O)NC3CCN(C)CC3)c(C)c3[nH]c4ncc(C)cc4c23)c1` [TAK-901], the Kd in experiment [1] is > 30 µM (inactive); in experiment [2], > 30 µM (inactive); in experiment [3], 0.249 µM (active); in experiment [4] it was > 30 µM (inactive); in [5] it was 22.5 µM (active); in experiment [6] it was 0.022 µM (active). The Kd was 28.9 µM (active) in [7], > 30 µM (inactive) in [8], 0.849 µM (active) in [9] and > 30 µM (inactive) in experiment [10].

On to `CO[C@H]1C[C@@H]2CC[C@@H](C)[C@@](O)(O2)C(=O)C(=O)N2CCCC[C@H]2C(=O)O[C@H]([C@H](C)C[C@@H]2CC[C@@H](OC(=O)C(C)(CO)CO)[C@H](OC)C2)CC(=O)[C@H](C)/C=C(\C)[C@@H](O)[C@@H](OC)C(=O)[C@H](C)C[C@H](C)/C=C/C=C/C=C/1C` [TEMSIROLIMUS], for which the Kd in experiment [1], in [2], in experiment [3], in [4], in experiment [5] and in experiment [6] was > 30 µM (inactive) in each case. Moreover, the Kd in [7], in [8], in experiment [9] and in [10] was > 30 µM (inactive) throughout.

For `COc1cc2c(Nc3ccc(Cl)c(Cl)c3F)ncnc2cc1OC[C@@H]1C[C@@H]2CN(C)C[C@@H]2C1` [TESEVATINIB], the Kd was > 30 µM (inactive) in [1]; > 30 µM (inactive) in experiment [2]; > 30 µM (inactive) in experiment [3]; > 30 µM (inactive) in experiment [4]; > 30 µM (inactive) in [5]; 0.44 µM (active) in experiment [6]. The Kd in [7], in [8], in experiment [9] and in experiment [10] was > 30 µM (inactive) in each case.

Regarding `O=C(Cc1ccc(-c2ccc(OCCN3CCOCC3)cc2)cn1)NCc1ccccc1` [TIRBANIBULIN], the Kd in [1], in [2], in experiment [3], in experiment [4], in experiment [5] and in experiment [6] was > 30 µM (inactive) in each case. Further, the Kd in experiment [7], in experiment [8], in experiment [9] and in experiment [10] was > 30 µM (inactive) in each case.

Take `O=C1NC(=O)[C@@H](c2cn3c4c(cccc24)CCC3)[C@@H]1c1c[nH]c2ccccc12` [TIVANTINIB]: the Kd in [1], in [2], in experiment [3], in [4], in [5] and in experiment [6] was > 30 µM (inactive) in each case. For the same compound, the Kd in experiment [7], in experiment [8], in experiment [9] and in [10] was > 30 µM (inactive) in each case.

Take `C[C@@H](NC(=O)c1ncnc(N)c1Cl)c1ncc(C(=O)Nc2cc(C(F)(F)F)c(Cl)cn2)s1` [TOVORAFENIB]: the Kd in experiment [1], in experiment [2], in experiment [3], in [4], in experiment [5] and in [6] was > 30 µM (inactive) each time. The Kd in experiment [7], in experiment [8], in experiment [9] and in experiment [10] was > 30 µM (inactive) in each case.

For the compound `Cc1cc(Nc2ncnc3ccc(NC4=NC(C)(C)CO4)cc23)ccc1Oc1ccn2ncnc2c1` [TUCATINIB], the Kd in experiment [1], in experiment [2], in experiment [3], in [4], in [5] and in experiment [6] was > 30 µM (inactive) throughout. Besides, the Kd in experiment [7], in experiment [8], in experiment [9] and in experiment [10] was > 30 µM (inactive) throughout.
